Test results as given in PubChem BioAssay (NCI).
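Each compound was tested at five concentrations against cells in 96-well plates for 48 hours. Definition used: TGI = concentration required for complete inhibition of growth.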

Columns and labels:
Assay in all cases: growth of human tumour cells (NCI), 48 h
MCF7 breast = tested on: MCF7 breast
HL-60(TB) leukemia = tested on: HL-60(TB) leukemia
HCT-116 colon = tested on: HCT-116 colon
LOX IMVI melanoma = tested on: LOX IMVI melanoma
SNB-19 CNS = tested on: SNB-19 CNS
UO-31 renal = tested on: UO-31 renal
T-47D breast = tested on: T-47D breast
SK-MEL-2 melanoma = tested on: SK-MEL-2 melanoma
KM12 colon = tested on: KM12 colon
MDA-N = tested on: MDA-N
SF-539 CNS = tested on: SF-539 CNS
TK-10 renal = tested on: TK-10 renal
COLO 205 colon = tested on: COLO 205 colon
CAKI-1 renal = tested on: CAKI-1 renal
SN12C renal = tested on: SN12C renal
MDA-MB-435 = tested on: MDA-MB-435

Measured: TGI

CC1=NN(c2nc(N)nc(NS(=O)(=O)c3cc(C)c(Cl)cc3S)n2)C(C)(C)C1
> 10 µM: MCF7 breast | HL-60(TB) leukemia | HCT-116 colon | LOX IMVI melanoma | SNB-19 CNS | UO-31 renal | T-47D breast | SK-MEL-2 melanoma | KM12 colon | MDA-N | SF-539 CNS | TK-10 renal | COLO 205 colon | CAKI-1 renal | SN12C renal

CSc1nc(=S)[nH]c2c1c(C)nn2-c1ccccc1
43.2 µM: HCT-116 colon
46.1 µM: MCF7 breast
40.3 µM: CAKI-1 renal
> 100 µM: HL-60(TB) leukemia | LOX IMVI melanoma | SNB-19 CNS | MDA-MB-435 | MDA-N | TK-10 renal
69.8 µM: UO-31 renal
52.7 µM: SN12C renal
56.5 µM: COLO 205 colon
62.5 µM: T-47D breast
68.5 µM: SK-MEL-2 melanoma
98.2 µM: SF-539 CNS

CSc1ncnc2c1cnn2Cc1cn(COCCO)nn1
39.6 µM: MDA-N
> 100 µM: MCF7 breast | HL-60(TB) leukemia | HCT-116 colon | LOX IMVI melanoma | SNB-19 CNS | UO-31 renal | T-47D breast | SK-MEL-2 melanoma | KM12 colon | SF-539 CNS | TK-10 renal | COLO 205 colon | SN12C renal
42.3 µM: MDA-MB-435

CN(C)CCN(C)P12(Oc3ccccc3O1)Oc1c(Cl)c(Cl)c(Cl)c(Cl)c1O2
> 100 µM: MCF7 breast | HCT-116 colon | LOX IMVI melanoma | SNB-19 CNS | UO-31 renal | MDA-MB-435 | T-47D breast | MDA-N | TK-10 renal | COLO 205 colon | SN12C renal
40.9 µM: HL-60(TB) leukemia

O=C1N=C2SC=C(NC(=S)Nc3ccccc3)N2NC12c1ccccc1-c1ccccc12
> 10 µM: MCF7 breast | HL-60(TB) leukemia | HCT-116 colon | LOX IMVI melanoma | SNB-19 CNS | UO-31 renal | MDA-MB-435 | T-47D breast | KM12 colon | MDA-N | SF-539 CNS | TK-10 renal | COLO 205 colon | CAKI-1 renal | SN12C renal

FC(F)(F)c1ccccc1C1SCC2=Nc3ccccc3CN21 (stereo not given)
> 100 µM: MDA-N | CAKI-1 renal | SN12C renal
22.6 µM: SF-539 CNS
29.9 µM: TK-10 renal
25.5 µM: KM12 colon
66.2 µM: HL-60(TB) leukemia
38.4 µM: T-47D breast
24.1 µM: UO-31 renal
26.5 µM: MCF7 breast
28.4 µM: LOX IMVI melanoma
23.1 µM: HCT-116 colon
25 µM: COLO 205 colon
93.1 µM: MDA-MB-435
26.3 µM: SNB-19 CNS

CO/C(N)=C(\C#N)N=Cc1ccc2ccccc2c1
15.6 µM: HL-60(TB) leukemia
> 100 µM: HCT-116 colon | LOX IMVI melanoma | UO-31 renal | MDA-MB-435 | T-47D breast | SK-MEL-2 melanoma | KM12 colon | MDA-N | TK-10 renal | CAKI-1 renal | SN12C renal
51.8 µM: COLO 205 colon

Cn1c(=O)c2[nH]c(N=O)nc2n(C)c1=O
> 100 µM: MCF7 breast | HL-60(TB) leukemia | HCT-116 colon | LOX IMVI melanoma | UO-31 renal | MDA-MB-435 | T-47D breast | SK-MEL-2 melanoma | KM12 colon | MDA-N | SF-539 CNS | TK-10 renal | COLO 205 colon | CAKI-1 renal | SN12C renal
